# Results reported in PMC12104396, “Comparative in vitro assessment of CYP2C19 inhibition by ilaprazole and conventional proton pump inhibitors using a high throughput fluorometric assay” (Scientific Reports, 2025).
# Values joined by “and” are separate entries in the source; they are usually repeats but may differ in a detail not shown here. Equal values may be shown once.
# Experiments:
# [1] = Unbound peak plasma concentration (Cmax,u) from literature Cmax; assay type: in vivo; details: unbound peak plasma concentration = literature Cmax x fu 0.01; highest recommended doses
# Text: The Cmax values for Pantoprazole, Rabeprazole, Lansoprazole, and Omeprazole were obtained from reliable sources, primarily the highest recommended doses listed in the FDA drug labels[15]–[19]. However, for Ilaprazole, as no literature data was available, its Cmax was obtained from available pharmacokinetic studies [drawing 4]
# Cmax,u = unbound peak plasma concentration, Cmax = Maximum plasma concentration (from literature), fu = fraction unbound in plasma (0.01 as per the guidance for high protein-bound drugs).
# CYP2C19 = target: T1, CYP2C19 (Homo sapiens, UniProt P33261); test: High-throughput fluorometric CYP2C19 inhibition assay (Vivid CYP2C19 Blue Screening Kit, EOMCC substrate, endpoint mode); assay type: biochemical; details: for Ki: approximated as IC50,u/2 (Cheng-Prusoff, S much lower than Km), read-out: Ki,u (unbound inhibition constant); for IC50: recombinant human CYP2C19 BACULOSOMES, eight concentrations, duplicate, nonlinear regression
# T1 construct: purchased Thermo Scientific P2864
# T1 sequence (P33261 whole entry): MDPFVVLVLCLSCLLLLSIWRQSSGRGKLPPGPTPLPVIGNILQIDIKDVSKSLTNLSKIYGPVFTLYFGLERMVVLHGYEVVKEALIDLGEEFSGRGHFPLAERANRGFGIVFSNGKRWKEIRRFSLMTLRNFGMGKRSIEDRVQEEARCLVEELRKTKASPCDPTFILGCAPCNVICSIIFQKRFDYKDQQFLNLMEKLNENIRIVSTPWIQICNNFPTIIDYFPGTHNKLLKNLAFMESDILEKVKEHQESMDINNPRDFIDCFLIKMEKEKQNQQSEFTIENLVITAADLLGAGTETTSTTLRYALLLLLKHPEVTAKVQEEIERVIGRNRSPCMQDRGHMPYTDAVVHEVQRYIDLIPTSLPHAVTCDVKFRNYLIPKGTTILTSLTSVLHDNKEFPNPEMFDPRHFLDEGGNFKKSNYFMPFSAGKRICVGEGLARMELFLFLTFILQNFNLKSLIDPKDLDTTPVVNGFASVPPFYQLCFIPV
# Description: Vivid™ CYP2C19 Blue Screening Kit (Thermo Scientific; Cat. No. P2864).
# Vivid® CYP450 2X Reaction Buffer 100 Mm, CYP2C19 BACULOSOMES® Plus Reagent 0.5 nmol (Recombinant human cytochrome P450), 0.5 mL Vivid® Regeneration System (Glucose-6-phosphate and 30U/mL Glucose-6-phosphate dehydrogenase in 100 mM Potassium phosphate), 0.5 mL Vivid® NADP + , Vivid® EOMCC Substrate 0.1 mg, Vivid® Blue Fluorescent Standard 0.1 µmol.
# Test compounds: Dissolved in DMSO; diluted to 2.5X in 1X buffer.
# Positive control inhibitor (Ticlopidine): Stock in DMSO; 2.5X dilution in 1X buffer.
# Master Pre-Mix: P450 BACULOSOMES® (50 µL) + Vivid® Regeneration System (100 µL) in 1X buffer.
# Substrate/NADP + Mixture: Reconstituted substrate (0.1 mg in 205 µL acetonitrile); added 50 µL substrate + 30 µL NADP + (100X).
# A high-throughput fluorometric assay was conducted using a black 96-well microplate. Fluorescence measurements were recorded on a BioTek Synergy H1 multimode microplate reader (Agilent, US) with the appropriate excitation/emission wavelength. The assay followed the protocol provided by Life Technologies, USA. Test compounds were evaluated based on their ability to inhibit fluorescent signal production in reactions involving recombinant CYP isozymes and specific substrates. For IC50 determination, two-fold serial dilutions of the test samples were prepared, and the plates were incubated at 37 °C for 20 min. The enzymatic reaction was initiated by adding a mixture of NADP + and the appropriate substrate, followed by a 10-min incubation at 37 °C. The reaction was then stopped by adding 0.5 M Tris buffer (end-point assay). Fluorescence data was collected at eight different concentrations for both inhibitors and test compounds, with all measurements performed in duplicate.
# Fluorescence data were collected after the incubation period, to calculate the percentage inhibition using the following formula: [drawing 1]
# X = Fluorescence intensity of test compound (PPIs), A = Fluorescence intensity of solvent control (Fluorescence standard), B = Fluorescence intensity of the positive inhibitor (Ticlopidine).
# IC50 values for CYP2C19 (the concentration required to inhibit 50% of CYP2C19 activity) inhibition were calculated using nonlinear regression analysis in GraphPad Prism 9 software.
# IC₅₀,u (unbound IC₅₀) was calculated using the formula: [drawing 2] fu, inc = Fraction unbound in the incubation system (0.02, as per regulatory assumptions for highly protein-bound drugs).
# The unbound inhibition constant (Ki,u) was determined using the Cheng-Prusoff equation: [drawing 3]
# S = Substrate concentration used in the assay, IC₅₀,u = unbound half-maximal inhibitory concentration, Km = Michaelis constant for the substrate.
# Fluorometric assay is the most commonly used method to identify the CYP inhibition of compounds in early drug discovery due to its sensitivity, speed, low cost, and ease of use. This method helps to ensure the drug interaction potential of the test compound on the important CYP isoforms such as CYP2C19. Inhibitor potency was quantified by determining IC50 values, which in turn was carried out using fixed substrate and inhibitor concentrations. Ilaprazole, Conventional PPIs, and Positive Control (Ticlopidine) were assayed between concentrations ranging from 0.8 to 6.4 μg/mL (Eight Different Concentration). All samples were assayed in duplicate as per the experimental condition (Table 1), the endpoint mode was selected to analyze the percentage inhibition, and IC50 values were calculated.
SMILES,"Cmax,u [1]",Ki (CYP2C19) [µM],IC50 (CYP2C19) [µM]
COc1ccnc(C[S+]([O-])c2nc3cc(-n4cccc4)ccc3[nH]2)c1C (stereo not drawn) [Ilaprazole],0.0045 µg/mL and 0.0123 µM,166,6.62 ± 1.34
COc1ccc2[nH]c([S+]([O-])Cc3ncc(C)c(OC)c3C)nc2c1 (stereo not drawn) [Omeprazole],0.0112 µg/mL and 0.0324 µM,35.2,1.41 ± 0.96
COc1ccnc(C[S+]([O-])c2nc3ccc(OC(F)F)cc3[nH]2)c1OC (stereo not drawn) [Pantoprazole],0.025 µg/mL and 0.0652 µM,88,3.52 ± 1.47

# Further molecules by falling Ki (CYP2C19), results first:
"Cmax,u [1]",Ki (CYP2C19) [µM],IC50 (CYP2C19) [µM],SMILES
0.0062 µg/mL and 0.0173 µM,161,6.43 ± 1.09,COCCCOc1ccnc(C[S+]([O-])c2nc3ccccc3[nH]2)c1C (stereo not drawn) [Rabeprazole]
0.0115 µg/mL and 0.0311 µM,41.3,1.65 ± 1.37,Cc1c(OCC(F)(F)F)ccnc1C[S+]([O-])c1nc2ccccc2[nH]1 (stereo not drawn) [Lansoprazole]
